Data: ChEMBL document CHEMBL4414652, “Identification of Methionine Aminopeptidase-2 (MetAP-2) Inhibitor M8891: A Clinical Compound for the Treatment of Cancer” (J Med Chem, 2019)
≈ marks a conversion by molar mass, not a printed value.

Columns and labels:
[1] = target: Methionine aminopeptidase 1 (Homo sapiens, UniProt P53582)
Description: Inhibition of N-terminal MetAP1 (unknown origin)

in vivo [2] = settings: mouse, faeces, iv
Description: Drug recovery in iv dosed mouse feces

[3] = Drug recovery in dog at 0.2 mg/kg, iv measured up to 72 hrs; format: ADME, organism-based, Canis lupus familiaris; settings: in vivo
[4] = Drug recovery in monkey at 0.2 mg/kg, iv measured up to 72 hrs; format: ADME, organism-based, Macaca mulatta; settings: rhesus monkey, in vivo
[5] = mouse, in vivo, iv, 1 mg/kg
in vivo [6] = settings: mouse, iv
Description: Half life in iv dosed mouse

physchem = settings: PBS buffer
Description: Solubility of compound in PBS buffer

in vitro [7] = settings: mouse, plasma
Description: Protein binding in mouse plasma assessed as unbound fraction

in vitro [8] = settings: human, plasma
Description: Protein binding in human plasma assessed as unbound fraction

Description for CAKI-1: Antitumour activity against human Caki1 cells xenografted in nude CD-1 mouse assessed as tumor growth at 25 mg/kg, po BID for 36 days relative to control
Description for U-87 MG: Antitumour activity against human U87MG cells xenografted in nude CD-1 mouse assessed as tumor growth at 20 mg/kg, po administered daily for 14 days relative to control

Compound | IC50 [1] [µM] | dose excreted (in vivo [2]) [%] | also measured
CCNC(=O)c1cc2cc(N3CC[C@](O)(C(=O)NCc4cc(F)cc(Cl)c4)C3=O)ccc2[nH]1 | > 10 |  | 
CS(=O)(=O)Nc1cccc(N2CC[C@](O)(C(=O)NCc3cc(F)cc(Cl)c3)C2=O)c1 | > 10 |  | 
O=C(NCc1cc(F)cc(Cl)c1)[C@@]1(O)CCN(c2cnc3[nH]ccc3c2)C1=O | > 10 | 2.3 | T/C (U-87 MG): 45%
O=C(NCc1cc(F)cc(F)c1)[C@@]1(O)CCN(c2ccc3[nH]ncc3c2)C1=O | > 10 | < 1 | 
NCCCNC(=O)c1cc2cc(N3CC[C@](O)(C(=O)NCc4cc(F)cc(Cl)c4)C3=O)ccc2[nH]1 | > 10 |  | 
O=C1CCc2cc(N3CC[C@](O)(C(=O)NCc4c(F)cccc4Cl)C3=O)ccc2N1 | > 10 |  | 
O=C1CCc2cc(N3CC[C@](O)(C(=O)NCc4cc(F)cc(Cl)c4F)C3=O)ccc2N1 | > 10 |  | 
O=C1CCc2cc(N3CC[C@](O)(C(=O)NCc4cc(F)cc(F)c4F)C3=O)ccc2N1 | > 10 |  | 
Cc1cc2cc(N3CC[C@](O)(C(=O)NCc4cc(F)cc(Cl)c4)C3=O)ccc2[nH]1 | > 10 |  | 
O=C1CCc2cc(N3CC[C@](O)(C(=O)NCc4c(F)cccc4F)C3=O)ccc2N1 | > 10 |  | 
O=C1CCc2cc(N3CC[C@](O)(C(=O)NCc4ccc(F)c(Cl)c4F)C3=O)ccc2N1 | > 10 |  | 

Second part, led by results:

IC50 [1] [µM] | dose excreted (in vivo [2]) [%] | Compound | also measured
> 10 |  | O=C1CCc2cc(N3CC[C@](O)(C(=O)NCc4cc(F)cc(Cl)c4)C3=O)cc(F)c2N1 | 
> 10 |  | O=C1CCc2cc(N3CC[C@](O)(C(=O)NCc4cc(F)c(F)c(F)c4)C3=O)ccc2N1 | 
> 10 | < 1 | O=C(NCc1cc(F)cc(F)c1)[C@@]1(O)CCN(c2cnc3[nH]ccc3c2)C1=O | T/C (CAKI-1): 39%
> 10 |  | CN1C(=O)CCc2cc(N3CC[C@](O)(C(=O)NCc4cc(F)cc(Cl)c4)C3=O)ccc21 | 
> 10 | < 1 | O=C(NCc1cc(F)cc(Cl)c1)[C@@]1(O)CCN(c2ccc3[nH]ncc3c2)C1=O | 
> 10 |  | O=C1CCc2cc(N3CC[C@](O)(C(=O)NCc4cc(F)cc(F)c4)C3=O)ccc2N1 | 
> 10 | < 1 | O=C(NCc1cc(F)cc(Cl)c1)[C@@]1(O)CCN(c2ccc3[nH]ccc3c2)C1=O | 
> 10 |  | O=C1CCc2cc(N3CC[C@](O)(C(=O)NCc4cc(F)ccc4Cl)C3=O)ccc2N1 | 
> 10 | 23 | O=C1CCc2cc(N3CC[C@](O)(C(=O)NCc4cc(F)cc(Cl)c4)C3=O)ccc2N1 | Drug recovery [3]: Active; Drug recovery [4]: Active; AUC [5]: 19 ng·h/mL; T/C (U-87 MG): 45%; half-life (in vivo [6]): 3 h; solubility (physchem): 90 µg/mL (≈ 208 µM); fraction unbound (in vitro [7]): 0.017; fraction unbound (in vitro [8]): 0.023
> 10 |  | O=C1CCc2cc(N3CC[C@](O)(C(=O)NCc4cccc(F)c4F)C3=O)ccc2N1 | 
> 10 |  | O=C1CCc2cc(N3CC[C@](O)(C(=O)NCc4cccc(Cl)c4F)C3=O)ccc2N1 | 
> 10 |  | O=C1CCc2cc(N3CC[C@](O)(C(=O)NCc4c(F)ccc(F)c4F)C3=O)ccc2N1 | 
> 10 | 1.5 | O=C(NCc1cc(F)cc(Cl)c1)[C@@]1(O)CCN(c2cnc3[nH]cc(Cl)c3c2)C1=O | 
> 10 | 2.7 | O=C(NCc1cc(F)cc(F)c1)[C@@]1(O)CCN(c2cnc3[nH]cc(Cl)c3c2)C1=O | 
